Columns and labels:
[1] = test system: fibres innervating the cornea (polymodal nociceptive fibres); test: Extracellular recording of corneal nerve fibres in cats with a corneal wound, before and after topical drug application; type: in vivo, cat; conditions: anaesthetized cats 7 and 15 days after circular corneal wound; for responses evoked by pulses of CO2 of 30 s duration: 98% CO2 on receptor field around the lesion, before vs after topical application (same concentration ranges); for spontaneous activity of the fibres innervating the zones around the lesion: before vs after topical application (carbamazepine 0.001-0.01%, phenyloin 0.001-0.1%, mexiletine 0.001-0.1%, lidocaine 0.0005-0.01%, tocaidine 0.001-0.01%)
Protocol: Tests were carried out on fifteen adult cats of both sexes, anaesthetized with pentobarbital sodium (Nembutal, 40 mg/kg, i.p.). The cornea of both eyes was anaesthetized topically by instillation of tetracaine 0.1% and oxybuprocaine hydrochloride 0.4%.
A circular wound was made in the centre of the cornea with a 5 mm dia. trepan which penetrated 40-50 μm below the Bowman membrane. The animals were treated with topical and systemic antibiotics, leaving them to recover for 1-2 weeks.
The recording tests were carried out 7 and 15 days after surgery. The animals were anaesthetized with Nembutal (40 mg/kg, i.p.) and were maintained in a state of areflexia during the experiment by intravenous infusion of dilute Nembutal (5 mg/kg) in the saphenous vein. The animals breathed spontaneously through a tracheal cannula. Respiratory CO2, rectal temperature and arterial pressure were monitored continuously and were kept stable. The animals were sacrificed with an overdose of Nembutal at the end of the experiment.
Extracellular recording was made of nerve fibres isolated from the cornea, obtained from the ciliary nerves of the eye, using silver/silver chloride electrodes and conventional electrophysiological equipment, as described previously (cf. Belmonte, C., Gallar, J., Pozo, M. A., Rebollo, I. (1991) Excitation by irritant chemical substances of sensory afferent units in the cat's cornea. J. Physiol. 437: 709-725).
The corneal sensory fibres were identified by their response to mild stimulation with a wet brush. The mechanical threshold was measured with a Cochet-Bonnet aesthesiometer with a No. 12 filament (0.1-1.9 mN) and with calibrated von Frey hairs (0.002-2.0 N). The receptor fields were mapped with a suprathreshold force hair. Sensitivity to chemical stimuli was investigated by applying a pulse of gas containing 98% CO2 at a flow rate of 80 ml/min on the receptor field for 30 s.
The conduction velocity was measured by observing the latency to electric shocks (0.1-0.5 ms, 0.5-3.0 mA) applied on the receptor field with a pair of silver electrodes 3-5 mm apart. The conduction distance was estimated with a silk thread of 0.8 G positioned on the path of the nerve.
The nerve discharges and the stimulation pulses were recorded on an FM magnetic tape recorder for off-line computer analysis with suitable software (CED 1401plus and Spike2 for Windows). The spontaneous activity (average discharge frequency in pulses per second) and the changes in discharge caused by the various stimuli were measured.
The fibres were classified as peripheral and central according to the localization of their receptor field. […] Depending on the localization of the receptor field the fibres were classified as far from the wound or close to or bordering on the wound. The control data were obtained from intact corneas.
The response of the polymodal nociceptive fibres to chemical stimulation was investigated in the fibres whose receptor field touched the damaged area and in those whose receptor field was outside of and far from the lesion. The spontaneous activity and the discharge of the fibres in response to stimulation with CO2 were measured before and after topical application of carbamazepine (0.001-0.01%), phenyloin (5,5-diphenylhydantoin) (0.001-0.1%), mexiletine (0.001-0.1%), lidocaine (0.0005-0.01%) and tocaidine (0.001-0.01%).

[2] = test system: sensations of ocular dryness that appear after photorefractive surgery of the LASIK type; test: Clinical study of topical carbamazepine versus placebo on ocular dryness after LASIK surgery; type: in vivo, human; conditions: ophthalmic solution at 0.01%, one drop in the operated eye twice a day for 14 days after LASIK
Protocol: A clinical study was carried out for comparing the attenuating effect produced by the topical administration of carbamazepine and of a placebo on the sensations of ocular dryness that appear after photorefractive surgery of the LASIK type. The study included 124 subjects, men and women in the age range 21-45 years, who underwent routine, elective, unilateral LASIK surgery for correction of myopia. The carbamazepine was administered in ophthalmic solution at 0.01%. After surgery, the subjects received one drop of the study medication in the operated eye, twice a day for 14 consecutive days. Postoperative examinations were carried out on days 1, 3, 7 and 14. The efficacy of the treatment was assessed by measuring the sensation of ocular dryness, pain intensity, and the overall analgesic efficacy, employing independent visual-analogy scales. The symptoms of eye inflammation, burning/stinging sensations, lacrimation etc. were also recorded.

Compound	responses evoked by pulses of CO2 of 30 s duration [1]	spontaneous activity of the fibres innervating the zones around the lesion [1]	incidence of symptoms of dryness throughout the day [2]	incidence of the symptoms of ocular dryness ([2]; statistically significant)
NC(=O)N1c2ccccc2C=Cc2ccccc21 [carbamazepine]	dose-dependent decrease	dose-dependent decrease	significantly lower	more reduced incidence
CCN(CC)CC(=O)Nc1c(C)cccc1C [lidocaine]	dose-dependent decrease	dose-dependent decrease		
Cc1cccc(C)c1NC(=O)C(C)N (stereo not drawn) [tocaidine]	dose-dependent decrease	dose-dependent decrease		
Cc1cccc(C)c1OCC(C)N (stereo not drawn) [mexiletine]	dose-dependent decrease	dose-dependent decrease		
O=C1NC(=O)C(c2ccccc2)(c2ccccc2)N1 [phenyloin, 5,5-diphenylhydantoin]	dose-dependent decrease	dose-dependent decrease		

From patent US20070135412A1, “Compounds for the treatment of ocular dryness caused by photorefractive surgery” (priority 2003, published 2007)
